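Values below derive from 48-hour exposures of cells grown in 96-well plates, with endpoints linearly interpolated between the two concentrations bracketing the appropriate inhibition level. At the GI50, growth is halved.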 Active and inactive are the calls of the source. Rule as the data show it: active = GI50 up to about 1.1 µM and inactive = higher.
Tests used:
Assay in all cases: NCI anticancer screen, dose series, 48 h
786-0 = tested on: 786-0
A549 = tested on: A549
COLO 205 = tested on: COLO 205
HL-60 = tested on: HL-60
HT-29 = tested on: HT-29
IGROV-1 = tested on: IGROV-1
K562 = tested on: K562
KM12 = tested on: KM12
M14 = tested on: M14
NCI-H23 = tested on: NCI-H23
NCI-H522 = tested on: NCI-H522
RPMI-8226 = tested on: RPMI-8226
SK-MEL-28 = tested on: SK-MEL-28
UACC-62 = tested on: UACC-62
ACHN = tested on: ACHN
HOP-62 = tested on: HOP-62
SNB-19 = tested on: SNB-19

Measured: GI50

Cn1c(N)c(-c2c3ccccc3nc3ccccc23)c(=O)n(C)c1=O
inactive: 786-0 > 100 µM | A549 > 100 µM | COLO 205 > 100 µM | HL-60 > 100 µM | HT-29 > 100 µM | IGROV-1 > 100 µM | K562 > 100 µM | KM12 > 100 µM | M14 > 100 µM | NCI-H23 > 100 µM | NCI-H522 > 100 µM | RPMI-8226 > 100 µM | SK-MEL-28 > 100 µM | UACC-62 > 100 µM

CC(C)(C)OC(=O)N1N=NC2C1C1CC(OCc3ccccc3)(OCc3ccccc3)C2O1 (stereo unspecified)
inactive: 786-0 40.8 µM | A549 84.5 µM | ACHN > 100 µM | COLO 205 > 100 µM | HL-60 8.02 µM | HOP-62 > 100 µM | HT-29 > 100 µM | IGROV-1 > 100 µM | K562 20.2 µM | KM12 81.8 µM | M14 44.1 µM | NCI-H23 21.1 µM | RPMI-8226 14.1 µM | SK-MEL-28 29 µM | UACC-62 71.4 µM

CCOC(=O)C(=O)Nc1nc2c(OCC)cccc2s1
inactive: 786-0 > 100 µM | A549 > 100 µM | ACHN > 100 µM | COLO 205 > 100 µM | HL-60 > 100 µM | HOP-62 > 100 µM | HT-29 > 100 µM | IGROV-1 > 100 µM | K562 > 100 µM | KM12 > 100 µM | M14 > 100 µM | NCI-H23 > 100 µM | NCI-H522 > 100 µM | RPMI-8226 > 100 µM | SK-MEL-28 > 100 µM | SNB-19 > 100 µM | UACC-62 > 100 µM

O=C(Nc1cccc(NC(=O)c2cc(=O)c3ccccc3o2)n1)c1cc(=O)c2ccccc2o1
inactive: 786-0 > 100 µM | A549 53.6 µM | ACHN 8.32 µM | COLO 205 74.3 µM | HL-60 32.3 µM | HOP-62 90.8 µM | IGROV-1 38.2 µM | K562 5.46 µM | KM12 17.9 µM | M14 12.3 µM | NCI-H23 20.1 µM | NCI-H522 15 µM | RPMI-8226 23.3 µM | SK-MEL-28 62.4 µM | SNB-19 68.9 µM | UACC-62 6.75 µM

N#CC(/C(=N/NC(=O)C(=O)NN)C(=O)Nc1nc([N+](=O)[O-])cs1)c1ccc(Cl)cc1 (stereo unspecified)
inactive: 786-0 > 100 µM | A549 > 100 µM | ACHN > 100 µM | COLO 205 > 100 µM | HL-60 > 100 µM | HOP-62 > 100 µM | HT-29 > 100 µM | IGROV-1 > 100 µM | KM12 > 100 µM | M14 > 100 µM | NCI-H23 > 100 µM | RPMI-8226 > 100 µM | SK-MEL-28 > 100 µM | SNB-19 > 100 µM | UACC-62 56.5 µM

O=C(CCc1nnc2s/c(=C\c3ccc([N+](=O)[O-])cc3)c(=O)n12)Nc1ccc(Cl)c(Cl)c1
inactive: 786-0 17.9 µM | A549 40.7 µM | ACHN 36.4 µM | COLO 205 28.1 µM | HL-60 17.3 µM | HOP-62 20.3 µM | HT-29 30.3 µM | IGROV-1 24.7 µM | K562 20.3 µM | KM12 16 µM | M14 21.6 µM | NCI-H23 25.8 µM | NCI-H522 17.3 µM | RPMI-8226 20.6 µM | SK-MEL-28 21.8 µM | SNB-19 72.9 µM | UACC-62 26.5 µM

O=C(O)c1cc(-c2ccccc2O)nc2ccccc12
inactive: 786-0 > 100 µM | A549 > 100 µM | ACHN > 100 µM | COLO 205 > 100 µM | HOP-62 > 100 µM | HT-29 > 100 µM | IGROV-1 > 100 µM | K562 > 100 µM | KM12 > 100 µM | M14 > 100 µM | NCI-H23 > 100 µM | NCI-H522 > 100 µM | RPMI-8226 > 100 µM | SK-MEL-28 > 100 µM | SNB-19 > 100 µM | UACC-62 > 100 µM

CCOC(=O)CC1NC(=O)CS1 (stereo unspecified)
inactive: 786-0 45.8 µM | A549 > 100 µM | ACHN > 100 µM | COLO 205 4.39 µM | HL-60 > 100 µM | HOP-62 > 100 µM | HT-29 > 100 µM | IGROV-1 > 100 µM | K562 80.4 µM | KM12 > 100 µM | M14 > 100 µM | NCI-H23 > 100 µM | RPMI-8226 26.8 µM | SK-MEL-28 > 100 µM | SNB-19 > 100 µM | UACC-62 > 100 µM

C#CCN(C)C(=O)N(CC#C)N=O
inactive: 786-0 > 100 µM | A549 > 100 µM | ACHN > 100 µM | COLO 205 > 100 µM | HL-60 > 100 µM | HOP-62 > 100 µM | HT-29 > 100 µM | IGROV-1 > 100 µM | K562 > 100 µM | KM12 > 100 µM | M14 > 100 µM | NCI-H23 > 100 µM | NCI-H522 > 100 µM | RPMI-8226 > 100 µM | SK-MEL-28 > 100 µM | SNB-19 > 100 µM | UACC-62 > 100 µM

O=C(c1ccccc1)C(c1ccccc1)C1(O)C(=O)Nc2ccccc21 (stereo unspecified)
inactive: 786-0 > 100 µM | A549 > 100 µM | ACHN > 100 µM | COLO 205 > 100 µM | HL-60 > 100 µM | HOP-62 > 100 µM | HT-29 > 100 µM | IGROV-1 > 100 µM | K562 > 100 µM | M14 > 100 µM | NCI-H23 > 100 µM | NCI-H522 > 100 µM | RPMI-8226 > 100 µM | SK-MEL-28 > 100 µM | SNB-19 > 100 µM | UACC-62 > 100 µM

NC(=O)c1cccc(C2OC(COP(=O)(O)O)C(O)C2O)c1 (stereo unspecified)
inactive: 786-0 21.7 µM | A549 > 50 µM | ACHN > 50 µM | COLO 205 > 50 µM | HL-60 20.7 µM | HOP-62 > 50 µM | HT-29 > 50 µM | IGROV-1 > 50 µM | K562 26.8 µM | KM12 > 50 µM | M14 20 µM | NCI-H23 > 50 µM | NCI-H522 > 50 µM | RPMI-8226 > 50 µM | SK-MEL-28 45.9 µM | SNB-19 > 50 µM | UACC-62 > 50 µM

CC(=O)O[C@H]1CCN2C(=O)C=CC(OCc3ccccc3)C12 (stereo partly specified)
inactive: 786-0 > 100 µM | A549 > 100 µM | ACHN > 100 µM | COLO 205 > 100 µM | HL-60 > 100 µM | HOP-62 > 100 µM | HT-29 > 100 µM | IGROV-1 > 100 µM | K562 > 100 µM | KM12 > 100 µM | M14 > 100 µM | NCI-H23 > 100 µM | RPMI-8226 > 100 µM | SK-MEL-28 > 100 µM | UACC-62 > 100 µM
